Reference: patent US20090253796A1, “METHOD FOR TREATING VASCULAR DISEASE” (Research Foundation Itsuu Laboratory, priority 2002, published 2009)

How the values were obtained:
[1] = test system: human umbilical artery endothelial cells; assay: BrdU uptake (proliferation) of endothelial cells; type: cell-based; conditions: for ratio of uptake of BrdU relative to the uptake without Am80: Endothelial cell, 10% fetal bovine serum, BrdU added after 24 hours, measured for 4 hours
Experimental: (§1) Rat aorta smooth muscle cells and human umbilical artery endothelial cells were cultured in the presence of 10% fetal bovine serum, and added with Am80 at various concentrations. After 24 hours, BrdU was added to the culture medium, and BrdU uptake ability was measured for 4 hours. The ratios of uptake of BrdU at the various concentrations relative to the uptake obtained without addition of Am80 are summarized in the table. The BrdU uptake ability represents DNA synthesis ability in proportion to the proliferation.

[2] = test system: rabbit common iliac artery; assay: Restenosis after indwelling of stent in common iliac artery; type: in vivo; conditions: rabbits, oral 1 mg/kg every day, 4 weeks after indwelling of the stent, p<0.05 vs control group
Experimental: Internal diameter of a rabbit common iliac artery was measured by intravascular ultrasound imaging (IVUS), and then a balloon was expanded to a size of 1 to 1.1 times of the internal diameter and a stent was indwelled. After the indwelling, the internal diameter was measured again by IVUS to confirm that the internal diameter changed 1 to 1.1 times and the stent was precisely indwelled. For each of the control group and Am80-administrated group, 6 rabbits were used. The rabbits were orally administered with Am80 at a dose of 1 mg/kg every day, and 4 weeks after the indwelling of the stent, the arteries at the stent-indwelled sites were collected and fixed to examine tissue images. Serial sections were prepared for the proximal, intermediary, and distal positions within the stent, and areas of tunica media and intima were measured.

[3] = test system: angiotensin II hypercardia model mice; assay: Angiotensin II hypercardia model; type: in vivo
Experimental: Mice were administered with angiotensin II at a dose of 3.2 mg/kg/day for two weeks by using an osmotic pressure pump to prepare hypercardia models. After 2 weeks, hypercardia, stromal fibrosing, and fibrosing around coronary artery were observed.

[4] = test system: cuff-injured femoral arteries of wild-type mice (129SVxC57BL6); assay: Cuff-injured femoral artery model; type: in vivo; conditions: for neointima of injured blood vessel (in words) / granulation around the cuff (in words): 5 mg/kg/day
Experimental: Polyethylene tube cuffs were indwelled in femoral arteries of wild-type mice (129SVxC57BL6) to injure the arteries. Am80 was orally administered at a dose of 5 mg/kg/day, and after 5 weeks, appearance and cross sections of the injured sites were evaluated. Areas of neointima of the femoral artery covered with the tube cuff and granulation tissue around the cuff were measured.

[5] = test system: Rat aorta smooth muscle cells; assay: BrdU uptake (proliferation) of smooth muscle cells; type: cell-based; conditions: for ratio of uptake of BrdU relative to the uptake without Am80: Smooth muscle cell, 10% fetal bovine serum, BrdU added after 24 hours, measured for 4 hours
Experimental: as §1

KLF5/BTEB2+/- mice = assay: Cuff injury in KLF5/BTEB2+/- knockout mice; type: in vivo; conditions: in which granulation was otherwise suppressed
From the text: It is known that various kinds of growth factors are induced in blood vessel walls against affections in the cardiovascular system remodeling. By using mice (KLF5/BTEB2+/−mice) with hetero-knockout of Zn finger type transcription factor KLF5/BTEB2, which is strongly expressed in neointima of injured blood vessels among such growth factors, studies were made to know whether or not the effect of proliferation of neointima was induced by the retinoid action.

Row | SMILES | ratio of uptake of BrdU relative to the uptake without Am80 ([1]; 0.3 μM) | ratio of uptake of BrdU relative to the uptake without Am80 ([1]; 1 μM) | ratio of uptake of BrdU relative to the uptake without Am80 ([1]; 3 μM) | ratio of uptake of BrdU relative to the uptake without Am80 ([1]; 10 μM) | antiproliferative action on vascular endothelial cells (in words) ([1]; summary statement) | ratio of intima/tunica media [2] | onsets of hypercardia, stromal fibrosing, and fibrosing around coronary artery ([3]; angiotensin II 3.2 mg/kg/day plus 5 mg/kg/day compound for two weeks) | Heart weight/body weight ([3]; angiotensin II 3.2 mg/kg/day plus Am80 5 mg/kg/day for two weeks, control mice 5.65 ± 0.195 mg/g) [mg/g] | neointima of injured blood vessel (in words) ([4]; mice, oral 5 mg/kg/day, after 5 weeks, compared with control mice) | neointima of injured blood vessel (in words) ([4]; mice, oral 5 mg/kg/day, after 5 weeks, compared with control mice; listed as 4-[5,6,7,8-tetrahydro-5,5,8,8-tetramethyl-2-naphthalenyl)carbamoyl]benzoic acid) | granulation around the cuff (in words) ([4]; mice, oral 5 mg/kg/day, after 5 weeks, compared with mice not administered) | granulation around the cuff (in words) ([4]; mice, oral 5 mg/kg/day, after 5 weeks, compared with mice not administered; listed as 4-[5,6,7,8-tetrahydro-5,5,8,8-tetramethyl-2-naphthalenyl)carbamoyl]benzoic acid) | Neointima area ([4]; mice, oral 5 mg/kg/day, after 5 weeks, control mice 0.0117 mm^2) [mm^2] | Granulation tissue area ([4]; mice, oral 5 mg/kg/day, after 5 weeks, control mice 1.08 mm^2) [mm^2] | ratio of uptake of BrdU relative to the uptake without Am80 ([5]; 0.3 μM) | ratio of uptake of BrdU relative to the uptake without Am80 ([5]; 1 μM) | ratio of uptake of BrdU relative to the uptake without Am80 ([5]; 3 μM) | ratio of uptake of BrdU relative to the uptake without Am80 ([5]; 10 μM) | antiproliferative action on vascular smooth muscle cells (in words) ([5]; summary statement) | granulation (in words) (KLF5/BTEB2+/- mice)
1 | CC1(C)CCC(C)(C)c2cc(NC(=O)c3ccc(C(=O)O)cc3)ccc21 [Am80] | 95.1 | 109.4 | 104.0 | 102.1 | substantially no antiproliferative action | significantly decreased | markedly suppressed | 4.78 ± 0.170 | significantly decreased | superior antiproliferative action on neointima | markedly suppressed | markedly suppressed granulation | 0.0019 | 0.44 | 95.5 | 78.5 | 74.4 | 68.8 | substantially had antiproliferative action | 
2 | CN1c2cc3c(cc2N=C(c2ccc(C(=O)O)cc2)c2ccccc21)C(C)(C)CCC3(C)C [LE135, 4-(5H-7,8,9,10-tetra-hydro-5,7,7,10,10-pentamethylbenzo[e]naphtho[2,3-b][1,4]-diazepin-13-yl)benzoic acid] |  |  |  |  |  |  |  |  |  |  |  |  |  |  |  |  |  |  |  | strong granulation was observed
